Laboratory results reported in PubChem BioAssay AID248 (DTP/NCI, 2004).
“And” between values parts separate entries of the source, which are not always exact repeats. Equal values may be shown once. Inconclusive results and toxic doses are left out.

Tested on: L1210 leukemia ip in BDF1 mice, survival T/C
Experiment: NCI In Vivo Anticancer Drug Screen. Data for tumor model L1210 Leukemia (intraperitoneal) in B6D2F1 (BDF1) mice
Settings: endpoint: mean survival time, higher = longer survival
How it was run: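 Mice bearing the transplanted tumor received compound or vehicle. Survival of the treated group was divided by that of the vehicle-treated control group to give the ratio.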

[1] = dose: 25.0 mg/kg/injection, schedule: Q01DX009 (ip), vehicle: saline
[2] = dose: 50.0 mg/kg/injection, schedule: Q01DX009 (ip), vehicle: saline
[3] = dose: 100.0 mg/kg/injection, schedule: Q01DX009 (ip), vehicle: saline
[4] = dose: 200.0 mg/kg/injection, schedule: Q01DX009 (ip), vehicle: saline
[5] = dose: 100.0 mg/kg/injection, schedule: Q04DX002 (ip), vehicle: saline with Tween-80
[6] = dose: 200.0 mg/kg/injection, schedule: Q04DX002 (ip), vehicle: saline with Tween-80
[7] = dose: 400.0 mg/kg/injection, schedule: Q04DX002 (ip), vehicle: saline with Tween-80
[8] = dose: 100.0 mg/kg/injection, schedule: Q01DX001 (ip), vehicle: saline
[9] = dose: 200.0 mg/kg/injection, schedule: Q01DX001 (ip), vehicle: saline
[10] = dose: 50.0 mg/kg/injection, schedule: Q04DX002 (ip), vehicle: saline
[11] = dose: 100.0 mg/kg/injection, schedule: Q04DX002 (ip), vehicle: saline
[12] = dose: 25.0 mg/kg/injection, schedule: Q04DX002 (ip), vehicle: saline

For CSc1c(Cl)c(C(Cl)(Cl)Cl)nc2ccccc12, the T/C (dose: 12.5 mg/kg/injection, schedule: Q01DX009 (ip), vehicle: saline with Tween-80) was 93 % of control, the T/C (dose: 25.0 mg/kg/injection, schedule: Q01DX009 (ip), vehicle: saline with Tween-80) was 93 % of control and the T/C (dose: 50.0 mg/kg/injection, schedule: Q01DX009 (ip), vehicle: saline with Tween-80) was 103 % of control and 104 % of control.
With CCOC(=O)C1(C(=O)OCC)CCC(OCC)N1C(=O)c1cc2c(cc1[N+](=O)[O-])OCO2 (stereo not given) the T/C (dose: 100.0 mg/kg/injection, schedule: Q04DX003 (ip), vehicle: Klucel (hydroxypropylcellulose) (HPC)) was 99 % of control, the T/C (dose: 200.0 mg/kg/injection, schedule: Q04DX003 (ip), vehicle: Klucel (hydroxypropylcellulose) (HPC)) was 105 % of control and the T/C (dose: 400.0 mg/kg/injection, schedule: Q04DX003 (ip), vehicle: Klucel (hydroxypropylcellulose) (HPC)) was 97 % of control.
In the case of COc1ccc(C2(O)c3ccccc3-c3ccccc32)cc1, the T/C [1] is reported as 98 % of control, the T/C [2] is reported as 93 % of control and the T/C [3] is reported as 98 % of control. For the same compound, the T/C [4] was 101 % of control, the T/C (dose: 300.0 mg/kg/injection, schedule: Q01DX009 (ip), vehicle: saline) was 96 % of control and the T/C (dose: 400.0 mg/kg/injection, schedule: Q01DX009 (ip), vehicle: saline) was 95 % of control.
In the case of NS(=O)(=O)c1ccc(N=NN2CCOCC2)cc1, the T/C [5] is reported as 115 % of control, the T/C [6] is reported as 108 % of control and the T/C [7] is reported as 115 % of control.
With [Br][Pb]([c]1ccccc1)([c]1ccccc1)[c]1ccccc1 the T/C (dose: 1.5 mg/kg/injection, schedule: Q01DX009 (ip), vehicle: saline) was 103 % of control, the T/C (dose: 1.56 mg/kg/injection, schedule: Q04DX003 (ip), vehicle: acetone) was 93 % of control and the T/C (dose: 3.12 mg/kg/injection, schedule: Q01DX009 (ip), vehicle: saline) was 100 % of control. For the same compound, the T/C (dose: 3.12 mg/kg/injection, schedule: Q04DX003 (ip), vehicle: acetone) was 91 % of control, the T/C (dose: 6.25 mg/kg/injection, schedule: Q01DX009 (ip), vehicle: saline) was 92 % of control and the T/C (dose: 6.25 mg/kg/injection, schedule: Q04DX003 (ip), vehicle: acetone) was 88 % of control.
With Nc1nc(N)c(N=Nc2ccc(SCC(=O)O)cc2)c(=O)[nH]1 the T/C [8] was 93 % of control, the T/C [9] was 98 % of control and the T/C (dose: 400.0 mg/kg/injection, schedule: Q01DX001 (ip), vehicle: saline) was 96 % of control.
In the case of CCOC(=O)c1ccccn1, the T/C [8] is reported as 98 % of control and the T/C [9] is reported as 98 % of control.
CC(=O)NC1C(C)OC2COC(C)(C)OC2C1C (stereo not given) was tested, and the T/C (dose: 100.0 mg/kg/injection, schedule: Q01DX001 (ip), vehicle: saline with Tween-80) was 100 % of control, the T/C (dose: 200.0 mg/kg/injection, schedule: Q01DX001 (ip), vehicle: saline with Tween-80) was 100 % of control and the T/C (dose: 400.0 mg/kg/injection, schedule: Q01DX001 (ip), vehicle: saline with Tween-80) was 104 % of control.
For Cc1ccc(C(=O)c2sc(Nc3cccc(C(F)(F)F)c3)c(C#N)c2N)c(C)c1, the T/C [5] was 95 % of control, the T/C [6] was 87 % of control and the T/C [7] was 91 % of control.
With O=C(Nc1ccc(F)cc1)c1ccc([N+](=O)[O-])cc1 the T/C (dose: 100.0 mg/kg/injection, schedule: Q04DX002 (ip), vehicle: Klucel (hydroxypropylcellulose) (HPC)) was 95 % of control, the T/C (dose: 200.0 mg/kg/injection, schedule: Q04DX002 (ip), vehicle: Klucel (hydroxypropylcellulose) (HPC)) was 95 % of control and the T/C (dose: 400.0 mg/kg/injection, schedule: Q04DX002 (ip), vehicle: Klucel (hydroxypropylcellulose) (HPC)) was 92 % of control.
In the case of CCCC/C(CC)=N\N=C(/CC)CCCC, the T/C [10] is reported as 91 % of control, the T/C [11] is reported as 102 % of control and the T/C (dose: 200.0 mg/kg/injection, schedule: Q04DX002 (ip), vehicle: saline) is reported as 88 % of control. The T/C (dose: 400.0 mg/kg/injection, schedule: Q04DX002 (ip), vehicle: saline) was 96 % of control.
With CCCCOC(=O)C(N)Cc1ccc(OC)c(N(CCCl)CCCl)c1 (stereo not given) the T/C (dose: 0.6 mg/kg/injection, schedule: Q01DX009 (ip), vehicle: saline) was 93 % of control, the T/C (dose: 0.75 mg/kg/injection, schedule: Q01DX001 (ip), vehicle: saline) was 108 % of control and the T/C (dose: 1.3 mg/kg/injection, schedule: Q01DX009 (ip), vehicle: saline) was 191 % of control. For the same compound, the T/C (dose: 1.5 mg/kg/injection, schedule: Q01DX001 (ip), vehicle: saline) was 118 % of control, the T/C (dose: 2.0 mg/kg/injection, schedule: Q01DX009 (ip), vehicle: saline) was 162 % of control and the T/C (dose: 2.6 mg/kg/injection, schedule: Q01DX001 (ip), vehicle: saline) was 109 % of control. For the same compound, the T/C (dose: 3.0 mg/kg/injection, schedule: Q01DX009 (ip), vehicle: saline) was 107 % of control, the T/C (dose: 6.0 mg/kg/injection, schedule: Q01DX001 (ip), vehicle: saline) was 118 % of control and the T/C (dose: 12.0 mg/kg/injection, schedule: Q01DX001 (ip), vehicle: saline) was 120 % of control.
NCc1cccn1OCc1ccccc1 was tested, and the T/C (dose: 25.0 mg/kg/injection, schedule: Q01DX009 (ip), vehicle: Klucel (hydroxypropylcellulose) (HPC)) was 108 % of control, the T/C (dose: 50.0 mg/kg/injection, schedule: Q01DX009 (ip), vehicle: Klucel (hydroxypropylcellulose) (HPC)) was 108 % of control and the T/C (dose: 100.0 mg/kg/injection, schedule: Q01DX009 (ip), vehicle: Klucel (hydroxypropylcellulose) (HPC)) was 152 % of control.
In the case of CN=C(N)N(C)/N=C(C)\C=N\N(C)C(N)=NC, the T/C (dose: 15.0 mg/kg/injection, schedule: Q01DX Z (ip), vehicle: carboxymethylcellulose (CMC)) is reported as 98 % of control, the T/C (dose: 30.0 mg/kg/injection, schedule: Q01DX Z (ip), vehicle: carboxymethylcellulose (CMC)) is reported as 96 % of control and the T/C (dose: 60.0 mg/kg/injection, schedule: Q01DX Z (ip), vehicle: carboxymethylcellulose (CMC)) is reported as 101 % of control. The T/C (dose: 120.0 mg/kg/injection, schedule: Q01DX Z (ip), vehicle: carboxymethylcellulose (CMC)) was 113 % of control, the T/C (dose: 240.0 mg/kg/injection, schedule: Q01DX Z (oral), vehicle: carboxymethylcellulose (CMC)) was 104 % of control and the T/C (dose: 480.0 mg/kg/injection, schedule: Q01DX Z (oral), vehicle: carboxymethylcellulose (CMC)) was 104 % of control.
In the case of CC1C2C=CC1C(c1c3ccc(=O)c(O)c-3oc3c(O)c(O)ccc13)C2C(=O)O (stereo not given), the T/C (dose: 100.0 mg/kg/injection, schedule: Q04DX003 (ip), vehicle: saline) is reported as 105 % of control, the T/C (dose: 200.0 mg/kg/injection, schedule: Q04DX003 (ip), vehicle: saline) is reported as 103 % of control and the T/C (dose: 400.0 mg/kg/injection, schedule: Q04DX003 (ip), vehicle: saline) is reported as 100 % of control.
For O=C(O)Cn1nnc2ccccc21, the T/C [2] was 94 % of control, the T/C [3] was 249 % of control and the T/C [4] was 94 % of control.
COc1ccc(C(=O)/C(Br)=C/C(=O)O)cc1 was tested, and the T/C (dose: 12.5 mg/kg/injection, schedule: Q01DX009 (ip), vehicle: saline) was 102 % of control and 103 % of control and 108 % of control, the T/C (dose: 12.5 mg/kg/injection, schedule: Q04DX003 (ip), vehicle: saline) was 94 % of control and the T/C [1] was 98 % of control and 108 % of control (2×). For the same compound, the T/C [12] was 101 % of control, the T/C (dose: 25.0 mg/kg/injection, schedule: Q04DX003 (ip), vehicle: saline) was 94 % of control and the T/C [2] was 95 % of control and 110 % of control (2×). For the same compound, the T/C [10] was 105 % of control, the T/C (dose: 50.0 mg/kg/injection, schedule: Q04DX003 (ip), vehicle: saline) was 108 % of control and the T/C [11] was 112 % of control and 92 % of control.
In the case of CCCCCC(N)C(=O)O (stereo not given), the T/C (dose: 12.5 mg/kg/injection, schedule: Q04DX002 (ip), vehicle: saline) is reported as 104 % of control, the T/C [12] is reported as 100 % of control and the T/C [10] is reported as 107 % of control.
For O=C(Nc1nccs1)Nc1cc(C(F)(F)F)ccc1Cl, the T/C (dose: 50.0 mg/kg/injection, schedule: Q01DX001 (ip), vehicle: carboxymethylcellulose (CMC)) was 103 % of control, the T/C (dose: 50.0 mg/kg/injection, schedule: Q01DX009 (ip), vehicle: carboxymethylcellulose (CMC)) was 98 % of control and 109 % of control and the T/C (dose: 50.0 mg/kg/injection, schedule: Q04DX003 (ip), vehicle: carboxymethylcellulose (CMC)) was 102 % of control. The T/C (dose: 100.0 mg/kg/injection, schedule: Q01DX001 (ip), vehicle: carboxymethylcellulose (CMC)) was 97 % of control, the T/C (dose: 100.0 mg/kg/injection, schedule: Q01DX009 (ip), vehicle: carboxymethylcellulose (CMC)) was 101 % of control and 88 % of control and the T/C (dose: 100.0 mg/kg/injection, schedule: Q04DX002 (ip), vehicle: carboxymethylcellulose (CMC)) was 97 % of control and 101 % of control. For the same compound, the T/C (dose: 100.0 mg/kg/injection, schedule: Q04DX003 (ip), vehicle: carboxymethylcellulose (CMC)) was 97 % of control, the T/C (dose: 200.0 mg/kg/injection, schedule: Q01DX001 (ip), vehicle: carboxymethylcellulose (CMC)) was 98 % of control and the T/C (dose: 200.0 mg/kg/injection, schedule: Q04DX002 (ip), vehicle: carboxymethylcellulose (CMC)) was 87 % of control. For the same compound, the T/C (dose: 200.0 mg/kg/injection, schedule: Q04DX003 (ip), vehicle: carboxymethylcellulose (CMC)) was 96 % of control.
